Source: patent publication US20240158446A1, “CYCLIC COMPOUND HAVING SELECTIVE INHIBITORY ACTION ON KRAS OVER HRAS AND NRAS” (CHUGAI SEIYAKU KABUSHIKI KAISHA, priority 2021, published 2024)

Key:
[1] = biological target: GDP-bound NRAS wild-type protein (Homo sapiens, UniProt P01111); assay: Binding to NRAS by surface plasmon resonance (SPR), Single Cycle Kinetics; settings: ratio of KD for GDP-bound NRAS wild-type protein to KD for KRAS, SPR
[2] = biological target: GDP-bound HRAS wild-type protein (Homo sapiens, UniProt P01112); assay: Binding to HRAS by surface plasmon resonance (SPR), Single Cycle Kinetics; settings: ratio of KD for GDP-bound HRAS wild-type protein to KD for KRAS, SPR
[3] = tested on: human lung cancer strain NCI-H441; assay: cells; settings: NCI-H441, 96 h, read-out: NCI-H441 IC50 (nM), NCI-H441 cell proliferation, 4 days, CellTiter-Glo;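 also: cell proliferation inhibition after four days measured by CellTiter-Glo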
[4] = biological target: GDP-bound KRAS wild-type protein (Homo sapiens, UniProt P01116); assay: Binding to KRAS by surface plasmon resonance (SPR), Single Cycle Kinetics; settings: SPR, Single Cycle Kinetics, GDP-bound KRAS wild-type protein; read-out: KRAS KD
GDP-bound KRAS wild-type protein, sequence (P01116 whole entry): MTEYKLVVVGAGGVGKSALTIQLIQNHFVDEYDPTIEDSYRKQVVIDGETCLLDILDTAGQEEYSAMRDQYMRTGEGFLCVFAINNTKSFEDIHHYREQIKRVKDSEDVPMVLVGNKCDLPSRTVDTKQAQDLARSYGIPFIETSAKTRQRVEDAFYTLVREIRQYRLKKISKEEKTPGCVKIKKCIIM

GDP-bound NRAS wild-type protein, sequence (P01111 whole entry): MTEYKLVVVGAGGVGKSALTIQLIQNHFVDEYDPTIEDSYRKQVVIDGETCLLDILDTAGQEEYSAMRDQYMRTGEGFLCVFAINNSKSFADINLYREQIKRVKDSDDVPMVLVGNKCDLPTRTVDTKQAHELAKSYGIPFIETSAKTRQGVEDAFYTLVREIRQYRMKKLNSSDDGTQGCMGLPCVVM
GDP-bound HRAS wild-type protein, sequence (P01112 whole entry): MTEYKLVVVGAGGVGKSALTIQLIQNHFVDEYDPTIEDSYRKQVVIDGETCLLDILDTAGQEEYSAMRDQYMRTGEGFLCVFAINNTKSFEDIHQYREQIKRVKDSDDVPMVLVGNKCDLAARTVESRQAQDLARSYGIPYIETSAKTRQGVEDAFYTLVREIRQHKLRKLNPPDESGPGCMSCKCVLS

| SMILES | NRAS/KRAS (KD ratio) [1] | HRAS/KRAS (KD ratio) [2] | IC50 [3] [nM] | Kd [4] [nM] |
| --- | --- | --- | --- | --- |
| CCCC[C@H]1C(=O)N[C@@H]([C@@H](C)CC)C(=O)N(C)CC(=O)N(C)[C@H]2C/C=C\CCN(C2=O)[C@@H](Cc2ccc(C(F)(F)F)cc2)C(=O)N(C)CC(=O)N[C@@H](CCc2cc(F)c(C(F)(F)F)c(F)c2)C(=O)N2CC(F)(F)C[C@H]2C(=O)NC2(CC(C)(C)C2)C(=O)N(C)[C@@H](C2CCCC2)C(=O)N(C)[C@H](C(=O)N(C)C)CC(=O)N1C [PP1714] | A (a compound having 10 or more and less than 20 is denoted as A) | A (a compound having 10 or more and less than 20 is denoted as A) | 4.3 | 0.1 |
| CC[C@H](C)[C@@H]1NC(=O)[C@H](CC(C)C)N(C)C(=O)C[C@@H](C(=O)N(C)C)N(C)C(=O)[C@H](C2CCCC2)N(C)C(=O)C2(CC(C)(C)C2)NC(=O)[C@@H]2CC(F)(F)CN2C(=O)[C@H](CCc2cc(F)c(C(F)(F)F)c(F)c2)NC(=O)CN(C)C(=O)[C@H](Cc2ccc(C(F)(F)F)cc2)N2CC/C=C\C[C@@H](C2=O)N(C)C(=O)CN(C)C1=O [PP1715] | AA (a compound having 20 or more is denoted as AA) | A (a compound having 10 or more and less than 20 is denoted as A) | 2.7 | 0.061 |
| CC[C@H](C)[C@@H]1NC(=O)[C@H](CC2CCC2)N(C)C(=O)C[C@@H](C(=O)N(C)C)N(C)C(=O)[C@H](C2CCCC2)N(C)C(=O)C2(CC(C)(C)C2)NC(=O)[C@@H]2CC(F)(F)CN2C(=O)[C@H](CCc2cc(F)c(C(F)(F)F)c(F)c2)NC(=O)CN(C)C(=O)[C@H](Cc2ccc(C(F)(F)F)cc2)N2CC/C=C\C[C@@H](C2=O)N(C)C(=O)CN(C)C1=O [PP1716] | AA (a compound having 20 or more is denoted as AA) | A (a compound having 10 or more and less than 20 is denoted as A) | 3.8 | 0.099 |
| CC[C@H](C)[C@@H]1NC(=O)[C@H](COC)N(C)C(=O)C[C@@H](C(=O)N(C)C)N(C)C(=O)[C@H](C2CCCC2)N(C)C(=O)C2(CC(C)(C)C2)NC(=O)[C@@H]2CC(F)(F)CN2C(=O)[C@H](CCc2cc(F)c(C(F)(F)F)c(F)c2)NC(=O)CN(C)C(=O)[C@H](Cc2ccc(C(F)(F)F)cc2)N2CC/C=C\C[C@@H](C2=O)N(C)C(=O)CN(C)C1=O [PP1717] | A (a compound having 10 or more and less than 20 is denoted as A) | A (a compound having 10 or more and less than 20 is denoted as A) | 2.4 | 0.051 |
| CCCOC[C@H]1C(=O)N[C@@H]([C@@H](C)CC)C(=O)N(C)CC(=O)N(C)[C@H]2C/C=C\CCN(C2=O)[C@@H](Cc2ccc(C(F)(F)F)cc2)C(=O)N(C)CC(=O)N[C@@H](CCc2cc(F)c(C(F)(F)F)c(F)c2)C(=O)N2CC(F)(F)C[C@H]2C(=O)NC2(CC(C)(C)C2)C(=O)N(C)[C@@H](C2CCCC2)C(=O)N(C)[C@H](C(=O)N(C)C)CC(=O)N1C [PP1718] | AA (a compound having 20 or more is denoted as AA) | A (a compound having 10 or more and less than 20 is denoted as A) | 2.5 | 0.067 |
| CCCN(C)C(=O)[C@@H]1CC(=O)N(C)[C@@H](CC(F)F)C(=O)N[C@@H]([C@@H](C)CC)C(=O)N(C)CC(=O)N(C)[C@H]2C/C=C\CCN(C2=O)[C@@H](Cc2ccc(C(F)(F)F)cc2)C(=O)N(C)CC(=O)N[C@@H](CCc2cc(F)c(C(F)(F)F)c(F)c2)C(=O)N2CCC[C@H]2C(=O)NC2(CC(C)(C)C2)C(=O)N(C)[C@@H](C2CCCC2)C(=O)N1C [PP1721] | A (a compound having 10 or more and less than 20 is denoted as A) | A (a compound having 10 or more and less than 20 is denoted as A) | 10 | 0.3 |
| CC[C@H](C)[C@@H]1NC(=O)[C@H](CC(F)(F)F)N(C)C(=O)C[C@@H](C(=O)N(C)C)N(C)C(=O)[C@H](C2CCCC2)N(C)C(=O)C2(CC(C)(C)C2)NC(=O)[C@@H]2CCCN2C(=O)[C@H](CCc2cc(F)c(C(F)(F)F)c(F)c2)NC(=O)CN(C)C(=O)[C@H](Cc2ccc(C(F)(F)F)cc2)N2CC/C=C\C[C@@H](C2=O)N(C)C(=O)CN(C)C1=O [PP1722] | AA (a compound having 20 or more is denoted as AA) | A (a compound having 10 or more and less than 20 is denoted as A) | 1.8 | 0.06 |
| CC[C@H](C)[C@@H]1NC(=O)[C@H](CC(C)C)N(C)C(=O)C[C@@H](C(=O)N(C)C)N(C)C(=O)[C@H](C2CCCC2)N(C)C(=O)C2(CC(C)(C)C2)NC(=O)[C@@H]2CCCN2C(=O)[C@H](CCc2cc(F)c(C(F)(F)F)c(F)c2)NC(=O)CN(C)C(=O)[C@H](Cc2ccc(C(F)(F)F)cc2)N2CC/C=C\C[C@@H](C2=O)N(C)C(=O)CN(C)C1=O [PP1727] | A (a compound having 10 or more and less than 20 is denoted as A) | A (a compound having 10 or more and less than 20 is denoted as A) | 4 | 0.13 |
| CC[C@H](C)[C@@H]1NC(=O)[C@H](CC2CCC2)N(C)C(=O)C[C@@H](C(=O)N(C)C)N(C)C(=O)[C@H](C2CCCC2)N(C)C(=O)C2(CC(C)(C)C2)NC(=O)[C@@H]2CCCN2C(=O)[C@H](CCc2cc(F)c(C(F)(F)F)c(F)c2)NC(=O)CN(C)C(=O)[C@H](Cc2ccc(C(F)(F)F)cc2)N2CC/C=C\C[C@@H](C2=O)N(C)C(=O)CN(C)C1=O [PP1728] | A (a compound having 10 or more and less than 20 is denoted as A) | A (a compound having 10 or more and less than 20 is denoted as A) | 18.3 | 0.16 |
| CCCN(C)C(=O)[C@@H]1CC(=O)N(C)[C@@H](COC)C(=O)N[C@@H]([C@@H](C)CC)C(=O)N(C)CC(=O)N(C)[C@H]2C/C=C\CCN(C2=O)[C@@H](Cc2ccc(C(F)(F)F)cc2)C(=O)N(C)CC(=O)N[C@@H](CCc2cc(F)c(C(F)(F)F)c(F)c2)C(=O)N2CCC[C@H]2C(=O)NC2(CC(C)(C)C2)C(=O)N(C)[C@@H](C2CCCC2)C(=O)N1C [PP1729] | AA (a compound having 20 or more is denoted as AA) | A (a compound having 10 or more and less than 20 is denoted as A) | 20.6 | 0.2 |
| CCCN(C)C(=O)[C@@H]1CC(=O)N(C)[C@@H](C)C(=O)N[C@@H]([C@@H](C)CC)C(=O)N(C)CC(=O)N(C)[C@H]2C/C=C\CCN(C2=O)[C@@H](Cc2ccc(C(F)(F)F)cc2)C(=O)N(C)CC(=O)N[C@@H](CCc2cc(F)c(C(F)(F)F)c(F)c2)C(=O)N2C[C@H](OCC)C[C@H]2C(=O)NC2(CC(F)(F)C2)C(=O)N(C)[C@@H](C2CCCC2)C(=O)N1C [PP1731] | A (a compound having 10 or more and less than 20 is denoted as A) | A (a compound having 10 or more and less than 20 is denoted as A) | 7.4 | 0.07 |
| CCCN(C)C(=O)[C@@H]1CC(=O)N(C)[C@@H](CC)C(=O)N[C@@H]([C@@H](C)CC)C(=O)N(C)CC(=O)N(C)[C@H]2C/C=C\CCN(C2=O)[C@@H](Cc2ccc(C(F)(F)F)cc2)C(=O)N(C)CC(=O)N[C@@H](CCc2cc(F)c(C(F)(F)F)c(F)c2)C(=O)N2C[C@H](OCC)C[C@H]2C(=O)NC2(CC(F)(F)C2)C(=O)N(C)[C@@H](C2CCCC2)C(=O)N1C [PP1732] | AA (a compound having 20 or more is denoted as AA) | A (a compound having 10 or more and less than 20 is denoted as A) | 6.4 | 0.099 |
